Test results reported in patent US10295537B2, “Biorecognition elements for rapid detection of biocontamination” (The United States of America, as represented by the …, priority 2017, dated 2019).
Ends that are not written are not given here.

Columns and labels:
[1] = test system: P. stutzeri cells; assay: Fluorometry of P. stutzeri cells labeled with peptide-QD525 conjugates; assay type: cell-based; conditions: emission peak at 525 nm, 1×10^9 P. stutzeri cells
Method: The emission peak fluorescence at 525 nm of 1×10^9 P. stutzeri cells labeled with peptide-QD525 conjugates was measured in a fluorometer and relative fluorescence units (“RFIU”) were compared (Table 6 and 7, above). Peptides OBP11 and OBP12 targeting OprF, and peptide OPP1 targeting Opr86 presented fluorescence levels that greatly surpassed the other selected peptides for the respective target. OPP1, OBP11, and OBP12 were selected for further characterization and validation.
(§1) Bacterial stocks for experimentation were prepared by harvesting overnight grown bacterial cells by centrifugation at 11000×g for 15 min (at 4° C.), washed once with 1×PBS, pH 7.2, and re-suspended in 1×PBS to a concentration of 1×10^9 cells/mL. Bacterial titers were determined by measuring optical density at 600 nm and confirmed by colony counting on LB agar plates. Cell pellets produced by centrifuging 1 mL of the 1×10^9 cells/mL stock were re-suspended in 38 μL of 1×PBS and 62 μL of 2.4 μM peptide-QD was added to a final concentration of 1.5 μM. Cells were incubated for 30 min at 25° C. Cell pellets were washed three-times with 0.5 mL PBS and re-suspended in 500 μL PBS for fluorescence assays and imaging. Dilutions ranging from 1×10^9 cells to 1×10^4 cells were prepared using standard bacteriological techniques and 0.5 mL samples were used for fluorescence measurements.
(§2) Emission spectra were obtained using Cary Eclipse Fluorimeter with excitation at 330 nm, scan rate of 120 nm/imin, and PMT voltage of 1000V. Spectra were corrected for background and dilution factor when appropriate.

[2] = test system: Opr86; assay: Solution biopanning against biotinylated Opr86 extracellular loop fragment, three rounds of selection; assay type: binding, P. aeruginosa; conditions: Bushnell-Haas pH 8.5 with 1% Jet-A
Method: Generally, solution-phase biopanning was carried out as described by the manufacturer (New England Biolabs, Ipswich, Mass.) with some modifications, including the changing of pH from 7.0 to 5.5 and 8.5 and adding 1% v/v of Jet A fuel. The first round of selection was carried out by diluting Ph.D.-7 bacteriophage library 100-fold in 0.1% Tris buffer saline plus Tween 20 (0.1% TBST) at the appropriate pH for selection plus fuel. Subsequently, the phage library was incubated with 1 μg of N-terminal biotinylated target protein fragment (OprF1: […] (SEQ. ID No. 1), OprF2: ADIKNLADFMK QYPSTSTT (SEQ. ID No. 2), Opr86: […] STP (SEQ. ID No. 3)) for 1 hr at 25° C. Phage-protein complexes were captured with 50 μL of streptavidin magnetic microbeads, unbound phages were removed, and the pellet sample washed 10-times with 1 mL of 1× Tris buffer saline (“TBS”) plus 0.05% TBST to remove weakly bound phage particles. Bound bacteriophages were eluted from the beads by lowering the pH (0.2 M Glycine-HCl, pH 2.2) while rotating gently for 10 min at 25° C. After neutralization with 1 M Tris-HCl, pH 9.1, eluted phages were amplified by infection of E. coli strain ER 2738 grown in Luria-Bertani (“LB”) broth medium until early-log phase (OD600 0.1-0.5). Titer of the amplified phage (more than 10^10 pfu/mL) was determined by infection into E. coli ER2738 and subsequent growth in selective medium containing X gal/IPTG. Amplified phages from round 1 were pre-cleared with streptavidin-coated magnetic microbeads (50 μL) to further remove non-specific binders and then used as the input phage for round 2 of selection. Enrichment of the bacteriophage pool was achieved by performing […] of selection under the appropriate pH plus jet fuel condition. Genomic DNA from individual clones was sequenced by GenScript (Piscataway, N.J.).
The particular region of the Opr86 extracellular loop of sequence […] (SEQ. ID No. 3) was chemically synthesized with a biotin capture element and used as target epitope for BRE development in solution biopanning in Bushnell-Haas, pH 8.5, supplemented with 1% Jet-A. Following the previously established procedure for OprF, several unique Opr86 peptide BREs (“OPPs”) were identified after three rounds of selection (Table 7, above).

[3] = biological target: biotinylated bovine serum albumin (BSA) (Bos taurus, UniProt P02769); assay: Biopanning against biotinylated BSA to identify target-unrelated peptides; assay type: binding; conditions: phage displaying the peptide, round 3
biotinylated bovine serum albumin (BSA), sequence (P02769 25-607): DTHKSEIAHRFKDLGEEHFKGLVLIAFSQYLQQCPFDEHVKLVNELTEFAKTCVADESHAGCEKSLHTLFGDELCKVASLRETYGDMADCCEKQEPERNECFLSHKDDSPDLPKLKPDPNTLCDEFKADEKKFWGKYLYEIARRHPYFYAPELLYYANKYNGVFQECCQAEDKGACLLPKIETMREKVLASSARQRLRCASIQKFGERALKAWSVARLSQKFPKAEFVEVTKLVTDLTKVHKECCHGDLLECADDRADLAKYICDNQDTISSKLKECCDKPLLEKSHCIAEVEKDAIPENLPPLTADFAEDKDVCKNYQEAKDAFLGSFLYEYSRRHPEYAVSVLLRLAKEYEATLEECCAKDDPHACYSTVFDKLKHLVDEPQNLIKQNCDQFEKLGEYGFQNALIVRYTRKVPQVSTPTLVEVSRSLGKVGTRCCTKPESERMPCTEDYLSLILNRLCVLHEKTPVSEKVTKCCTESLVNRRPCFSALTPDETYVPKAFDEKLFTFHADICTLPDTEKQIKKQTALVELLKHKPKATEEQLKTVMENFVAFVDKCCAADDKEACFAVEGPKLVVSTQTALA
Excerpt: The phage library was then screened to identify target-unrelated peptides by using biotinylated bovine serum albumin (“BSA”) as a target for biopanning.

[4] = test system: Gram negative (P. stutzeri, P. alkaligenes, P. aeruginosa, A. venetianus) and Gram positive (Arthrobacter sp., Lynsinibacillus sp.) bacteria; assay: Fluorescence microscopy of fuel degrading bacteria labeled with peptide BRE-QD545; assay type: cell-based; conditions: 1×10^9 cells, QD545, 1.5 μM
Method: (§3) To characterize the specificity of the peptide BRE-QD545 conjugates for the intended bacterial groups, fluorescence imaging and fluorometric analysis were performed using different Gram negative and Gram positive fuel degrading bacteria. As such, cultures comprising 1×10^9 cells of Gram negative bacteria (P. stutzeri, P. alkaligenes, P. aeruginosa and A. venetianus) and Gram positive bacteria (Arthrobacter sp. and Lynsinibacillus sp.) were labeled with OPP1, OBP11 and OBP12 biofunctionalized QD545 and visualized using fluorescence microscopy (FIGS. 5-10) and the fluorescence quantified using a fluorometer (FIG. 11).
as §1
10 μL of the prepared sample was placed on a microscope slide, covered with a coverslip, and visualized on an Nikon Eclipse Ti-E inverted microscope equipped with X-Cite LED lamp, a fluorescence filter set (a bandpass exciter 405 nm and a longpass emission filter), a 1.25-numerical-aperture oil-immersion objective (DPlan 100×, Nikon). Images were captured by Nikon DS-sCMOS camera.

[5] = test system: Gram negative bacteria (A. venetianus and Pseudomonas spp.); assay: Fluorometry of fuel degrading bacteria labeled with peptide-QD545 conjugates (FIG. 11); assay type: cell-based; conditions: for detection of Gram negative bacteria by fluorometer: 1×10^9 cells, QD545 conjugates, FIG. 11
Method: as §3, §1, §2

[6] = test system: A. venetianus ATCC 31012; assay: Detection of bacteria recovered from spiked 1 L Jet A fuel with peptide-QD545 (LOD, fluorescence); assay type: cell-based; conditions: for LOD (CFU): 1.5 μM peptide-QD; for detection possible down to, in some instances: below reproducible LOD
Method: (§4) To test the applicability of the peptide BRE-QD chemistry in the detection of bacteria in fuel and characterize the LOD in such system, bacterial cells from 1 L jet fuel samples spiked with different levels of bacteria were recovered, labeled, and detected.
(§5) One liter Jet A fuel samples were amended with 1 mL of 1×PBS containing either A. venetianus ATCC 31012 or P. stutzeri at the appropriate test concentration was added to 1 L of Jet A fuel. The inoculated jet fuel samples were thoroughly mixed by vortex for 1 min and allowed to stand for 20 min to 30 min. To recover the cells, 1 mL of 1×PBS, named bacterial recovery solution (“BRS”), was added to the jet fuel samples, the samples shaken by hand, allowed stand for 5 min, and, then, 1 mL of the aqueous phase was collected using a long serological pipette. The 1 mL of solution with bacteria was centrifuged for 5 min at 11000×g, and washed three times with 1 mL of 1×PBS. Bacterial pellets were individually labeled using a final concentration 1.5 μM peptide-QD. The LOD was defined as the lowest concentration level that could be determined to be statistically different from QD labeled cells from the results of multiple testers. The actual cell level (colony-forming units, “CFU”) detected was determined by plating a portion of the sample after being subjected to the labeled procedure.
(§6) Cells in the 1 L of fuel were recovered with 1 mL of BRS. Efficient labeling of the bacteria was indicated by high levels of fluorescence detected from the cell wall by fluorescence microscopy (FIG. 13 and Table 10, below). FIG. 14 is a similar image but of fungus (Hormoconis) labeled by peptide-QD605. The LOD was reliably determined from assays performed by multiple testers.

[7] = test system: P. stutzeri; assay: as above; assay type: cell-based; conditions: for LOD (CFU) / Fluorescence (RFU): 1 L Jet A; for LOD (CFU): 1.5 μM peptide-QD; for detection possible down to, in some instances: below reproducible LOD; for Fluorescence (RFU): at LOD
Method: as §4, §5, §6

I I T M K R R (IITMKRR; Artificial sequence obtained through biopanning.) [OPP5, Opr86 peptide BRE]
Fluorescence (RFU) [1]: 4408 ± 225 RFU
% Abundance [2]: 3%

IQTNPTM (Artificial sequence obtained through biopanning.)
cross-reaction with BSA [3]: cross-react with BSA

L P S T I H R (LPSTIHR; Artificial sequence obtained through biopanning.) [OPP3, Opr86 peptide BRE]
Fluorescence (RFU) [1]: 2251 ± 63 RFU
% Abundance [2]: 2%

L R P L M N R (LRPLMNR; Artificial sequence obtained through biopanning.) [OPP4, Opr86 peptide BRE]
Fluorescence (RFU) [1]: 1383 ± 74 RFU
% Abundance [2]: 3%

M H N L N L L (MHNLNLL; Artificial sequence obtained through biopanning.) [OPP2, Opr86 peptide BRE]
Fluorescence (RFU) [1]: 1847 ± 52 RFU
% Abundance [2]: 2%

NMTNPPP (Artificial sequence obtained through biopanning.) [OBP6]
Fluorescence (RFU) [1]: 2080 ± 280 RFU

P R I R K S H (PRIRKSH; Artificial sequence obtained through biopanning.) [OPP1, Opr86 peptide BRE]
Fluorescence (RFU) [1]: 12258 ± 2060 RFU
% Abundance [2]: 3%
labeling of bacteria in fluorescence micrographs [4]: specifically labeled Gram negative bacteria but not the Gram positive bacteria

PIKTNRK (Artificial sequence obtained through biopanning.) [OBP11]
Fluorescence (RFU) [1]: 5308 ± 501 RFU
labeling of bacteria in fluorescence micrographs [4]: specifically labeled Gram negative bacteria but not the Gram positive bacteria
detection of Gram negative bacteria by fluorometer [5]: able to detect all Gram negative bacteria tested

PKRTPRH (Artificial sequence obtained through biopanning.) [OBP12]
Fluorescence (RFU) [1]: 6443 ± 957 RFU
labeling of bacteria in fluorescence micrographs [4]: specifically labeled Gram negative bacteria but not the Gram positive bacteria
detection of Gram negative bacteria by fluorometer [5]: able to detect all Gram negative bacteria tested
LOD of P. stutzeri compared among all the BREs ([5]; P. stutzeri): highest LOD

QD545-OBP11: peptide OBP11 conjugated to quantum dot QD545 (PIKTNRK; also: conjugated to quantum dot QD545)
LOD [6]: 5×10^5 CFU/mL of BRS
LOD (CFU) ([6]; 1 L Jet A): 5 × 10^5 CFU
detection possible down to, in some instances [6]: 5×10^4 CFU/mL of BRS
LOD [7]: 5×10^5 CFU/mL of BRS
LOD (CFU) [7]: 5 × 10^5 CFU
detection possible down to, in some instances [7]: 5×10^4 CFU/mL of BRS

QD545-OBP12: peptide OBP12 conjugated to quantum dot QD545 (PKRTPRH; also: conjugated to quantum dot QD545)
LOD [6]: 5×10^5 CFU/mL of BRS
LOD (CFU) ([6]; 1 L Jet A): 5 × 10^5 CFU
detection possible down to, in some instances [6]: 5×10^4 CFU/mL of BRS
LOD [7]: 5×10^5 CFU/mL of BRS
LOD (CFU) [7]: 5 × 10^5 CFU
Fluorescence (RFU) [7]: 12,205 RFU
detection possible down to, in some instances [7]: 5×10^4 CFU/mL of BRS

QD545-OPP1: peptide OPP1 conjugated to quantum dot QD545 (PRIRKSH; also: conjugated to quantum dot QD545)
LOD [6]: 5×10^4 CFU/mL of BRS
LOD (CFU) ([6]; 1 L Jet A): 5 × 10^5 CFU
Fluorescence (RFU) ([6]; 1 L Jet A, at LOD): 773 RFU
detection possible down to, in some instances [6]: 5×10^3 CFU/mL of BRS
LOD [7]: 5×10^4 CFU/mL of BRS
LOD (CFU) [7]: 5 × 10^5 CFU
Fluorescence (RFU) [7]: 820 RFU
detection possible down to, in some instances [7]: 5×10^3 CFU/mL of BRS
detection of Gram negative bacteria by fluorometer [5]: high fluorescence levels with all Gram negative bacteria tested

QITLRST (Artificial sequence obtained through biopanning.) [OBP7]
Fluorescence (RFU) [1]: 2625 ± 543 RFU

QMLLRLP (Artificial sequence obtained through biopanning.) [OBP9]
Fluorescence (RFU) [1]: 3338 ± 590 RFU

R K K S R I R (RKKSRIR; Artificial sequence obtained through biopanning.) [OPP6, Opr86 peptide BRE]
Fluorescence (RFU) [1]: 4126 ± 98 RFU
% Abundance [2]: 2%

RRSNSQL (Artificial sequence obtained through biopanning.) [OBP4]
Fluorescence (RFU) [1]: 4520 ± 473 RFU
